Test results from patent US8541460B2, “PDK-1/Akt signaling inhibitors” (The Ohio State University, priority 2003, dated 2013).

Assays:
Type in all cases: cell-based
OVCAR-5 = experiment: NCI DTP cell line screen (SRB), Ovarian Cancer
Procedure: (§1) Screening of compounds 70 and 71 against several cancer cell lines The human tumor cell lines of the cancer screening panel are grown in RPMI 1640 medium containing 5% fetal bovine serum and 2 mM L-glutamine. For a typical screening experiment, cells are inoculated into 96 well microtiter plates in 100 μL at plating densities ranging from 5,000 to 40,000 cells/well depending on the doubling time of individual cell lines. After cell inoculation, the microtiter plates are incubated at 37° C., 5% CO2, 95% air and 100% relative humidity for 24 h prior to addition of experimental drugs.
(§2) After 24 h, two plates of each cell line are fixed in situ with TCA, to represent a measurement of the cell population for each cell line at the time of drug addition (Tz). Experimental drugs are solubilized in dimethyl sulfoxide at 400-fold the desired final maximum test concentration and stored frozen prior to use. At the time of drug addition, an aliquot of frozen concentrate is thawed and diluted to twice the desired final maximum test concentration with complete medium containing 50 μg/ml gentamicin. Additional four, 10-fold or ½ log serial dilutions are made to provide a total of five drug concentrations plus control. Aliquots of 100 μl of these different drug dilutions are added to the appropriate microtiter wells already containing 100 μl of medium, resulting in the required final drug concentrations.
(§3) Following drug addition, the plates are incubated for an additional 48 h at 37° C., 5% CO2, 95% air, and 100% relative humidity. For adherent cells, the assay is terminated by the addition of cold TCA. Cells are fixed in situ by the gentle addition of 50 μl of cold 50% (w/v) TCA (final concentration, 10% TCA) and incubated for 60 minutes at 4° C. The supernatant is discarded, and the plates are washed five times with tap water and air dried. Sulforhodamine B (SRB) solution (100 μl) at 0.4% (w/v) in 1% acetic acid is added to each well, and plates are incubated for 10 minutes at room temperature. After staining, unbound dye is removed by washing five times with 1% acetic acid and the plates are air dried. Bound stain is subsequently solubilized with 10 mM trizma base, and the absorbance is read on an automated plate reader at a wavelength of 515 nm. For suspension cells, the methodology is the same except that the assay is terminated by fixing settled cells at the bottom of the wells by gently adding 50 μl of 80% TCA (final concentration, 16% TCA). Using the seven absorbance measurements [time zero, (Tz), control growth, (C), and test growth in the presence of drug at the five concentration levels (Ti)], the percentage growth is calculated at each of the drug concentrations levels. Percentage growth inhibition is calculated as: [(Ti−Tz)/(C−Tz)]×100 for concentrations for which Ti>/=Tz [(Ti−Tz)/Tz]×100 for concentrations for which Ti<Tz
(§4) Three dose response parameters are calculated for each experimental agent. […] The drug concentration resulting in total growth inhibition (TGI) is calculated from Ti=Tz. […] Values are calculated for each of these three parameters if the level of activity is reached; however, if the effect is not reached or is exceeded, the value for that parameter is expressed as greater or less than the maximum or minimum concentration tested.
(§5) The methods described were used to test compounds 70 and 71 on a panel of sixty cell lines under a screening service provided by the Developmental Therapeutics Program at the National Institutes of Health. Shown in FIG. 1C are 1, RPMI-8226 leukemia cells; 2; NCI-H322M non-small cell lung cancer cells; 3, HT29 colon cancer cells; 4, U251 CNS cancer cells; 5, SK-MEL-28 melanoma cancer cells; 6, SK-OV-3 ovarian cancer cells; 7, RXF 393 renal cancer cells; 8, PC-3 prostate cancer cells; 9, MDA-MB-231 breast cancer cells.

OVCAR-3 = experiment: NCI DTP cell line screen (SRB), Ovarian Cancer
Procedure: as §1, §2, §3, §4, §5

OVCAR-8 = experiment: NCI DTP cell line screen (SRB), Ovarian Cancer; details: OVCAR 8
Procedure: as §1, §2, §3, §4, §5

IGROV1 = experiment: NCI DTP cell line screen (SRB), Ovarian Cancer
Procedure: as §1, §2, §3, §4, §5

OVCAR-4 = experiment: NCI DTP cell line screen (SRB), Ovarian Cancer
Procedure: as §1, §2, §3, §4, §5

SR = experiment: NCI DTP cell line screen (SRB), Leukemia
Procedure: as §1, §2, §3, §4, §5

K-562 = experiment: NCI DTP cell line screen (SRB), Leukemia
Procedure: as §1, §2, §3, §4, §5

MOLT-4 = experiment: NCI DTP cell line screen (SRB), Leukemia
Procedure: as §1, §2, §3, §4, §5

[1] = read-out: LC50 (the source's name)

SMILES: N=C(N)Nc1ccc(-n2nc(C(F)(F)F)cc2-c2ccc3c(ccc4ccccc43)c2)cc1 [Compound 71, 4-[5-(2-Phenanthrenyl)-3-(trifluoromethyl)-1H-pyrazol-1-yl]-phenyl-guanidine]
- GI50 (OVCAR-5): 1730 nM
- TGI (OVCAR-5): 3.11E−06
- Mean Optical Densities (OVCAR-5; Log10 Concentration −4.0): 0.474
- Percent Growth (OVCAR-5; Log10 Concentration −4.0): −8%
- Mean Optical Densities (OVCAR-5; Log10 Concentration −5.0): −0.033
- Percent Growth (OVCAR-5; Log10 Concentration −5.0): −100%
- Mean Optical Densities (OVCAR-5; Log10 Concentration −6.0): 1.559
- Percent Growth (OVCAR-5; Log10 Concentration −6.0): 97%
- Mean Optical Densities (OVCAR-5; Log10 Concentration −7.0): 1.437
- Percent Growth (OVCAR-5; Log10 Concentration −7.0): 86%
- Mean Optical Densities (OVCAR-5; Log10 Concentration −8.0): 1.538
- Percent Growth (OVCAR-5; Log10 Concentration −8.0): 95%
- GI50 (OVCAR-3): 1400 nM
- TGI (OVCAR-3): 2.70E−06
- Mean Optical Densities (OVCAR-3; Log10 Concentration −4.0): 0.131
- Percent Growth (OVCAR-3; Log10 Concentration −4.0): −72%
- Mean Optical Densities (OVCAR-3; Log10 Concentration −5.0): −0.043
- Percent Growth (OVCAR-3; Log10 Concentration −5.0): −100%
- Mean Optical Densities (OVCAR-3; Log10 Concentration −6.0): 0.770
- Percent Growth (OVCAR-3; Log10 Concentration −6.0): 76%
- Mean Optical Densities (OVCAR-3; Log10 Concentration −7.0): 0.792
- Percent Growth (OVCAR-3; Log10 Concentration −7.0): 81%
- Mean Optical Densities (OVCAR-3; Log10 Concentration −8.0): 0.833
- Percent Growth (OVCAR-3; Log10 Concentration −8.0): 91%
- CC50 (OVCAR-3; [1]): 5200 nM
- GI50 (OVCAR-8): 1690 nM
- TGI (OVCAR-8): 3.05E−06
- Mean Optical Densities (OVCAR-8; Log10 Concentration −4.0): 0.126
- Percent Growth (OVCAR-8; Log10 Concentration −4.0): −69%
- Mean Optical Densities (OVCAR-8; Log10 Concentration −5.0): −0.001
- Percent Growth (OVCAR-8; Log10 Concentration −5.0): −100%
- Mean Optical Densities (OVCAR-8; Log10 Concentration −6.0): 0.934
- Percent Growth (OVCAR-8; Log10 Concentration −6.0): 94%
- Mean Optical Densities (OVCAR-8; Log10 Concentration −7.0): 0.946
- Percent Growth (OVCAR-8; Log10 Concentration −7.0): 96%
- Mean Optical Densities (OVCAR-8; Log10 Concentration −8.0): 0.923
- Percent Growth (OVCAR-8; Log10 Concentration −8.0): 92%
- CC50 (OVCAR-8; [1]): 5520 nM
- GI50 (IGROV1): 1070 nM
- TGI (IGROV1): 2.26E−06
- Mean Optical Densities (IGROV1; Log10 Concentration −4.0): 0.216
- Percent Growth (IGROV1; Log10 Concentration −4.0): −53%
- Mean Optical Densities (IGROV1; Log10 Concentration −5.0): −0.039
- Percent Growth (IGROV1; Log10 Concentration −5.0): −100%
- Mean Optical Densities (IGROV1; Log10 Concentration −6.0): 0.806
- Percent Growth (IGROV1; Log10 Concentration −6.0): 55%
- Mean Optical Densities (IGROV1; Log10 Concentration −7.0): 0.983
- Percent Growth (IGROV1; Log10 Concentration −7.0): 83%
- Mean Optical Densities (IGROV1; Log10 Concentration −8.0): 0.997
- Percent Growth (IGROV1; Log10 Concentration −8.0): 85%
- CC50 (IGROV1; [1]): 4750 nM
- GI50 (OVCAR-4): 1310 nM
- TGI (OVCAR-4): 2.58E−06
- Mean Optical Densities (OVCAR-4; Log10 Concentration −4.0): 0.179
- Percent Growth (OVCAR-4; Log10 Concentration −4.0): −66%
- Mean Optical Densities (OVCAR-4; Log10 Concentration −5.0): −0.001
- Percent Growth (OVCAR-4; Log10 Concentration −5.0): −100%
- Mean Optical Densities (OVCAR-4; Log10 Concentration −6.0): 0.945
- Percent Growth (OVCAR-4; Log10 Concentration −6.0): 70%
- Mean Optical Densities (OVCAR-4; Log10 Concentration −7.0): 0.999
- Percent Growth (OVCAR-4; Log10 Concentration −7.0): 79%
- Mean Optical Densities (OVCAR-4; Log10 Concentration −8.0): 1.011
- Percent Growth (OVCAR-4; Log10 Concentration −8.0): 81%
- CC50 (OVCAR-4; [1]): 5080 nM
- GI50 (SR): 38.6 nM
- TGI (SR): 3.79E−07
- Mean Optical Densities (SR; Log10 Concentration −4.0): 0.287
- Percent Growth (SR; Log10 Concentration −4.0): −21%
- Mean Optical Densities (SR; Log10 Concentration −5.0): 0.234
- Percent Growth (SR; Log10 Concentration −5.0): −36%
- Mean Optical Densities (SR; Log10 Concentration −6.0): 0.254
- Percent Growth (SR; Log10 Concentration −6.0): −30%
- Mean Optical Densities (SR; Log10 Concentration −7.0): 0.583
- Percent Growth (SR; Log10 Concentration −7.0): 42%
- Mean Optical Densities (SR; Log10 Concentration −8.0): 0.688
- Percent Growth (SR; Log10 Concentration −8.0): 62%
- CC50 (SR; [1]): > 100000 nM
- GI50 (K-562): 326 nM
- TGI (K-562): 1.52E−06
- Mean Optical Densities (K-562; Log10 Concentration −4.0): 0.119
- Percent Growth (K-562; Log10 Concentration −4.0): −60%
- Mean Optical Densities (K-562; Log10 Concentration −5.0): 0.126
- Percent Growth (K-562; Log10 Concentration −5.0): −58%
- Mean Optical Densities (K-562; Log10 Concentration −6.0): 0.438
- Percent Growth (K-562; Log10 Concentration −6.0): 13%
- Mean Optical Densities (K-562; Log10 Concentration −7.0): 1.283
- Percent Growth (K-562; Log10 Concentration −7.0): 89%
- Mean Optical Densities (K-562; Log10 Concentration −8.0): 1.338
- Percent Growth (K-562; Log10 Concentration −8.0): 94%
- CC50 (K-562; [1]): 7770 nM
- GI50 (MOLT-4): 233 nM
- TGI (MOLT-4): 1.98E−06
- Mean Optical Densities (MOLT-4; Log10 Concentration −4.0): 0.143
- Percent Growth (MOLT-4; Log10 Concentration −4.0): −54%
- Mean Optical Densities (MOLT-4; Log10 Concentration −5.0): 0.143
- Percent Growth (MOLT-4; Log10 Concentration −5.0): −54%
- Mean Optical Densities (MOLT-4; Log10 Concentration −6.0): 0.461
- Percent Growth (MOLT-4; Log10 Concentration −6.0): 23%
- Mean Optical Densities (MOLT-4; Log10 Concentration −7.0): 0.736
- Percent Growth (MOLT-4; Log10 Concentration −7.0): 66%
- Mean Optical Densities (MOLT-4; Log10 Concentration −8.0): 0.833
- Percent Growth (MOLT-4; Log10 Concentration −8.0): 81%
- CC50 (MOLT-4; [1]): 8750 nM
